Read-outs that look alike come from different tables or passages of the source. Values belong to the compound of their own block, whether it stands above or below them.
Columns and labels:
[1] = biological target: T1, FATP4 (Homo sapiens, UniProt Q6P1M0); experiment: Competition of Bodipy-FA uptake by FATP4 expressing cells (FACS); assay type: cell-based; conditions: for inhibition at 100 µM: read-out: Competition (inhibition of Bodipy-FA uptake)
T1 construct: expressed in transfected cells; host or cells: 293 cells (human kidney), stably transfected with pIRES-neo-hsFATP4, G418-selected
Procedure: Bodipy-FA uptake assays using FACS were performed, adapted to a 96-well format. LCFA uptake assays with enterocytes or with stably transfected 293 cells were done as follows. Mixed micelles of radiolabeled FA (NEN) and taurocholate (Sigma) in HBS were generated by brief sonication at 37° C. […] Final taurocholate concentration was 5 mM. Cells were incubated for the indicated amount of time at 37° C. The assay was stopped by transferring the cells onto filter paper followed by extensive washes with ice-cold HBS containing 0.1% BSA using a cell harvester (Brandell). Incorporated oleate was then determined by β-scintillation counting (Beckman).

[2] = system: 293 cells; experiment: Uptake of radiolabeled substrates by control (vector) 293 cells; assay type: cell-based, human; conditions: 10 μM substrate in HBS with 5 mM taurocholate; rate over 4 min
Procedure: (§1) Several of the cell lines with the highest amount of Bodipy-FA uptake as well as isolated primary enterocytes were used to measure the uptake of radiolabeled FAs.
(§2) Bodipy-FA uptake assays using FACS were performed, adapted to a 96-well format. LCFA uptake assays with enterocytes or with stably transfected 293 cells were done as follows. Mixed micelles of radiolabeled FA (NEN) and taurocholate (Sigma) in HBS were generated by brief sonication at 37° C. Equal volumes of cells and micelle solution were mixed, resulting in a final FA concentration of 25 μM for antisense assays and 10 μM for substrate specificity assays. Final taurocholate concentration was 5 mM. Cells were incubated for the indicated amount of time at 37° C. The assay was stopped by transferring the cells onto filter paper followed by extensive washes with ice-cold HBS containing 0.1% BSA using a cell harvester (Brandell). Incorporated oleate was then determined by β-scintillation counting (Beckman).

[3] = system: enterocytes; experiment: Uptake of radiolabeled substrates by isolated primary enterocytes; assay type: cell-based, mouse; conditions: for Uptake, Enterocytes: 10 μM substrate in HBS with 5 mM taurocholate, rate over 4 min; for Transport of the substrate by isolated primary enterocytes (in words): compared with transfected 293 cells
Procedure: as §1, §2

[4] = biological target: T2, hsFATP4 (Homo sapiens, UniProt Q6P1M0); experiment: Uptake of radiolabeled substrates by 293 cells stably expressing FATP4; assay type: cell-based; conditions: for Uptake, 293 Cells Stably Expressing FATP4: 10 μM substrate in HBS with 5 mM taurocholate, rate over 4 min; for Uptake, FATP4 specific: FATP4-expressing minus control 293 cells, 10 μM substrate, 5 mM taurocholate; for Effect of hsFATP4 expression on uptake of the substrate (in words): stably transfected 293 cells vs vector
T2 construct: expressed in transfected cells; host or cells: 293 cells (human kidney), stably transfected with pIRES-neo-hsFATP4, G418-selected
Procedure: Using a mammalian expression vector, we generated 40 stable […] cell lines expressing hsFATP4 and 20 cell lines transfected with a control plasmid.
as §1, §2

[5] = system: enterocytes; experiment: 35S-methionine uptake by cultured enterocytes after oligonucleotide treatment (specificity control); assay type: cell-based, mouse; conditions: 100 μM oligonucleotide, 48 h; FIG. 42
Procedure: As a further control experiment, the uptake of oleate was measured along with the uptake of methionine in the same cultured enterocytes. Antisense oligonucleotide, mismatch sequence oligonucleotide, or no oligonucleotide was added to a concentration of 100 μM to cultures of enterocytes. After incubation for 48 hours, the uptake of both ^3H-labeled oleate and ^35S-labeled methionine was assayed. Fatty acid uptake is at the left side of the paired bars; methionine uptake is on the right side of the paired bars.

[6] = system: FATP4 mRNA; experiment: Oleate uptake by isolated mouse enterocytes after incubation with FATP4 oligonucleotides; assay type: cell-based; conditions: 100 μM oligonucleotide; for Inhibition of fatty acid (oleate) uptake over time: 48 h, 25 μM oleate, FIG. 40
[7] = 5 μM Bodipy-FA, 100 μM competitor (20-fold molar excess), 100% = effect of 200 μM lauric acid

T2 sequence (Q6P1M0 whole entry): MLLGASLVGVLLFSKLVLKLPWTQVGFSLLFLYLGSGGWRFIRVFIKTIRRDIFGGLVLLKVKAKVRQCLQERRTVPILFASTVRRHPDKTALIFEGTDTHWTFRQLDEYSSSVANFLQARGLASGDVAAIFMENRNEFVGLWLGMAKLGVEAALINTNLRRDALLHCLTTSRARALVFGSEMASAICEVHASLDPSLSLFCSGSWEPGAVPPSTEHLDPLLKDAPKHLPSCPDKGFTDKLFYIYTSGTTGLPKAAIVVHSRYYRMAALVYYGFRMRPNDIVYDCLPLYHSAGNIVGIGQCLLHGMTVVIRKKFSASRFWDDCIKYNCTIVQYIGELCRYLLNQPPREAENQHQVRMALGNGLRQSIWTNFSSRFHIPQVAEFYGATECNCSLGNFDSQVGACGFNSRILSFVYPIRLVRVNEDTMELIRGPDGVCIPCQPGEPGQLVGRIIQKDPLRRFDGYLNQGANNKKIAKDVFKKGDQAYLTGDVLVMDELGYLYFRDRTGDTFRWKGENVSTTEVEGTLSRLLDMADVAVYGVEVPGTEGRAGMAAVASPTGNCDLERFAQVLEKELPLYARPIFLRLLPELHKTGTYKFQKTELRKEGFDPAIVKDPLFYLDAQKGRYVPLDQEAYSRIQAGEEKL
T1 sequence (Q6P1M0 whole entry): as above

Compound: CC1=C(C/C=C(\C)CCC[C@H](C)CCC[C@H](C)CCCC(C)C)C(=O)c2ccccc2C1=O [3-Phytylamenadione (Vitamin K1), 3-Phytylamenadione]
Competition (inhibition of Bodipy-FA uptake) [1, 7]: − (0%-30% inhibition by the indicated substance)

inhibition at 100 µM [1, 7]: 70 to 100%
Compound: CCCCCCCCCCCCCCCCCCCC(=O)O [Arachidic Acid]

Compound: CCCCC/C=C\C/C=C\C/C=C\C/C=C\CCCC(=O)O [Arachidonate]
Uptake, 293 Cells Control [2]: 3 pmol/min 10^6 cells
Uptake, Enterocytes [3]: 0 pmol/min 10^6 cells

Compound: CCCC(=O)O [Butyrate, Butyric Acid]
Uptake, 293 Cells Control [2]: 0 pmol/min 10^6 cells
Uptake, Enterocytes [3]: 73 pmol/min 10^6 cells
Transport of the substrate by isolated primary enterocytes (in words) [3]: absence of transport

inhibition at 100 µM [1, 7]: 70 to 100%
Compound: CCCCCCCCCC(=O)O [Capric Acid]

Compound: CCCCCC(=O)O [Caproic Acid]
inhibition at 100 µM [1]: 0 to 30%

inhibition at 100 µM [1, 7]: 70 to 100%
Compound: CCCCCCCCCCCCCCCCCCCCCCCCCC(=O)O [Cerotic Acid]

Uptake, 293 Cells Stably Expressing FATP4 [4]: 345 pmol/min 10^6 cells
Uptake, FATP4 specific [4]: 26 pmol/min 10^6 cells
Effect of hsFATP4 expression on uptake of the substrate (in words) [4]: not
Compound: CC(C)CCC[C@@H](C)[C@H]1CC[C@H]2[C@@H]3CC=C4C[C@@H](O)CC[C@]4(C)[C@H]3CC[C@]12C [Cholesterol]
Uptake, 293 Cells Control [2]: 319 pmol/min 10^6 cells
Uptake, Enterocytes [3]: 531 pmol/min 10^6 cells
Transport of the substrate by isolated primary enterocytes (in words) [3]: more robust transport

Compound: CCCCCCCC/C=C\CCCCCCCC(=O)O[C@H]1CC[C@@]2(C)C(=CC[C@H]3[C@@H]4CC[C@H]([C@H](C)CCCC(C)C)[C@@]4(C)CC[C@@H]32)C1 [Cholesteryl Oleate]
Competition (inhibition of Bodipy-FA uptake) [1, 7]: − (0%-30% inhibition by the indicated substance)

Compound: CCCCCCCCCCCCCCCCCCCCCCCC(=O)O [Lignoceric Acid]
inhibition at 100 µM [1]: 70 to 100%

inhibition at 100 µM [1, 7]: 70 to 100%
Uptake, 293 Cells Stably Expressing FATP4 [4]: 673 pmol/min 10^6 cells
Uptake, FATP4 specific [4]: 33 pmol/min 10^6 cells
Effect of hsFATP4 expression on uptake of the substrate (in words) [4]: not
Compound: CCCCC/C=C\C/C=C\CCCCCCCC(=O)O [Linolate, Linoleic Acid]
Uptake, 293 Cells Control [2]: 640 pmol/min 10^6 cells
Uptake, Enterocytes [3]: 116 pmol/min 10^6 cells
Transport of the substrate by isolated primary enterocytes (in words) [3]: more robust transport

Compound: CCCCCCCCCCCCCC(=O)O [Myristic Acid]
inhibition at 100 µM [1]: 70 to 100%

Compound: CCCCCCCC(=O)O [Octanoate, Caprylic Acid]
Uptake, 293 Cells Control [2]: 0 pmol/min 10^6 cells
Uptake, Enterocytes [3]: 5 pmol/min 10^6 cells
Transport of the substrate by isolated primary enterocytes (in words) [3]: absence of transport
inhibition at 100 µM [1]: 0 to 30%
Uptake, 293 Cells Stably Expressing FATP4 [4]: 0 pmol/min 10^6 cells
Uptake, FATP4 specific [4]: 0 pmol/min 10^6 cells
Effect of hsFATP4 expression on uptake of the substrate (in words) [4]: not

Compound: CCCCCCCC/C=C\CCCCCCCC(=O)O [Oleate, Oleic Acid]
Uptake, 293 Cells Control [2]: 662 pmol/min 10^6 cells
Uptake, Enterocytes [3]: 117 pmol/min 10^6 cells
Transport of the substrate by isolated primary enterocytes (in words) [3]: preference
Competition (inhibition of Bodipy-FA uptake) [1, 7]: ++ (70%-100% inhibition)
Uptake, 293 Cells Stably Expressing FATP4 [4]: 1122 pmol/min 10^6 cells
Uptake, FATP4 specific [4]: 459 pmol/min 10^6 cells
Effect of hsFATP4 expression on uptake of the substrate (in words) [4]: accelerated the uptake

inhibition at 100 µM [1, 7]: 0 to 30%
Compound: CCCCCCCC/C=C\CCCCCCCC(=O)OCC [Oleic Acid Ethyl Ester]

Compound: CCCCCCCC/C=C\CCCCCCCCOC(=O)CCCCCCC/C=C\CCCCCCCC [Oleic Acid Oley Ester]
Competition (inhibition of Bodipy-FA uptake) [1, 7]: − (0%-30% inhibition by the indicated substance)

inhibition at 100 µM [1, 7]: 0 to 30%
Compound: CCCCCCCC/C=C\CCCCCCCC(=O)SCCNC(=O)CCNC(=O)[C@H](O)C(C)(C)COP(=O)(O)OP(=O)(O)OC[C@H]1O[C@@H](n2cnc3c(N)ncnc32)[C@H](O)[C@@H]1OP(=O)(O)O [Oleoyl CoA]

inhibition at 100 µM [1, 7]: 70 to 100%
Uptake, 293 Cells Stably Expressing FATP4 [4]: 1695 pmol/min 10^6 cells
Uptake, FATP4 specific [4]: 1131 pmol/min 10^6 cells
Enhancement of rate of uptake by hsFATP4 expression over 293 cells transfected with vector alone ([4]; stably transfected 293 cells, FIG. 97): approximately 3 fold
Compound: CCCCCCCCCCCCCCCC(=O)O [Palmitate, Palmitic Acid]
Uptake, 293 Cells Control [2]: 564 pmol/min 10^6 cells
Uptake, Enterocytes [3]: 3036 pmol/min 10^6 cells
Transport of the substrate by isolated primary enterocytes (in words) [3]: preference

inhibition at 100 µM [1, 7]: 0 to 30%
Compound: CCCCCCCCCCCCCCCC(=O)OC [Palmitic Acid Methyl Ester]

Compound: CCCCC[C@H](O)/C=C/[C@H]1[C@H](O)CC(=O)[C@@H]1C/C=C\CCCC(=O)O [Prostaglandin E2]
Competition (inhibition of Bodipy-FA uptake) [1, 7]: − (0%-30% inhibition by the indicated substance)

inhibition at 100 µM [1, 7]: 30 to 50%
Compound: CC1=C(/C=C/C(C)=C/C=C/C(C)=C/C(=O)O)C(C)(C)CCC1 [Retinoic Acid (Pro-Vitamin A), Retinoic Acid]

Compound: CCCCCCCCCCCCCCCCCC(=O)OC [Stearic Acid Methyl Ester]
inhibition at 100 µM [1]: 0 to 30%

inhibition at 100 µM [1, 7]: 50 to 70%
Compound: CCCCCCCCCCCCCCCCCC(=O)O [Stearic Acid]

Compound: Ergocalciferol [Ergocalciferol (Vitamin D2)]
Competition (inhibition of Bodipy-FA uptake) [1, 7]: − (0%-30% inhibition by the indicated substance)

Compound: FATP4-AS2: Antisense oligo CCCCCACCAGAGAGGCTCC (SEQ ID NO:103), complementary to nucleotides 10 to 28 of the mouse FATP4 coding sequence (chemistry not given here)
Methionine (amino acid) uptake [5]: not influenced
Inhibition of fatty acid (oleate) uptake over time [6]: ~50%
Inhibition of oleate uptake over a 5 minute interval ([6]; 48 h incubation, FIG. 41): ~50%

Compound: FATP4-S2: Sense control oligo GGAGCCTCTCTGGTGGGGG (SEQ ID NO:105) (chemistry not given here)
Inhibition of fatty acid (oleate) uptake over time [6]: did not significantly influence the uptake

Compound: Tocopherol [Tocopherol (Vitamin E)]
Competition (inhibition of Bodipy-FA uptake) [1, 7]: − (0%-30% inhibition by the indicated substance)
